Measured values taken from patent US20210369846A1 (priority 2018, published 2021).
Marks after values point to notes of the source that are not given here.

How the values were obtained:
[1] = tested on: HMEC-1 human vascular endothelial cells

O=C(O)CCCC(=O)OCCC(F)(F)C(F)(F)C(F)(F)C(F)(F)C(F)(F)C(F)(F)F [2k3e]
Maximum Non-Cytotoxic Concentration HMEC-1 [1]: 0.01* % | Maximum Non-Hemolytic Concentration (blood): 0.05% | Maximum Non-Cytotoxic Concentration L929 (L929 mouse fibroblasts): 0.10* %

O=C(O)CSCCC(F)(F)C(F)(F)C(F)(F)C(F)(F)C(F)(F)C(F)(F)C(F)(F)C(F)(F)F [2a3f]
Maximum Non-Cytotoxic Concentration HMEC-1 [1]: 0.2% | Maximum Non-Hemolytic Concentration (blood): >2.00% | Maximum Non-Cytotoxic Concentration L929 (L929 mouse fibroblasts): 0.2%

O=C(O)CCCCCSCCC(F)(F)C(F)(F)C(F)(F)C(F)(F)C(F)(F)C(F)(F)C(F)(F)C(F)(F)F [2c3e]
Maximum Non-Cytotoxic Concentration HMEC-1 [1]: 1% | Maximum Non-Hemolytic Concentration (blood): 0.02% | Maximum Non-Cytotoxic Concentration L929 (L929 mouse fibroblasts): 0.5%

O=C(O)CCC(=O)OCCC(F)(F)C(F)(F)C(F)(F)C(F)(F)C(F)(F)C(F)(F)C(F)(F)C(F)(F)F [2j3a]
Maximum Non-Cytotoxic Concentration HMEC-1 [1]: 0.2% | Maximum Non-Hemolytic Concentration (blood): >2.00% | Maximum Non-Cytotoxic Concentration L929 (L929 mouse fibroblasts): 0.2%

O=C(O)CSCCC(F)(F)C(F)(F)C(F)(F)C(F)(F)C(F)(F)C(F)(F)C(F)(F)C(F)(F)F [2a3a]
Maximum Non-Cytotoxic Concentration HMEC-1 [1]: 1% | Maximum Non-Hemolytic Concentration (blood): 0.05% | Maximum Non-Cytotoxic Concentration L929 (L929 mouse fibroblasts): 0.5%

O=C(O)CCCC(=O)OCCC(F)(F)C(F)(F)C(F)(F)C(F)(F)C(F)(F)C(F)(F)F [2k3c]
Maximum Non-Cytotoxic Concentration HMEC-1 [1]: 0.10* % | Maximum Non-Hemolytic Concentration (blood): 0.05% | Maximum Non-Cytotoxic Concentration L929 (L929 mouse fibroblasts): 0.10* %

O=C(O)CCC(=O)OCCC(F)(F)C(F)(F)C(F)(F)C(F)(F)C(F)(F)C(F)(F)C(F)(F)C(F)(F)F [2j3k]
Maximum Non-Cytotoxic Concentration HMEC-1 [1]: 0.5% | Concentrations with no hemolytic properties (blood): ≤ 1% | Maximum Non-Hemolytic Concentration (blood): 1% | Maximum Non-Cytotoxic Concentration L929 (L929 mouse fibroblasts): 0.50* %

O=C(O)CCC(=O)OCCC(F)(F)C(F)(F)C(F)(F)C(F)(F)C(F)(F)C(F)(F)F [2i3k]
Maximum Non-Cytotoxic Concentration HMEC-1 [1]: 0.1% | Maximum Non-Hemolytic Concentration (blood): 0.1% | Maximum Non-Cytotoxic Concentration L929 (L929 mouse fibroblasts): 0.1%

O=C(O)CC(F)(F)C(F)(F)C(F)(F)C(F)(F)C(F)(F)C(F)(F)F [2p3c]
Maximum Non-Cytotoxic Concentration HMEC-1 [1]: 0.1% | Maximum Non-Hemolytic Concentration (blood): 0.25% | Maximum Non-Cytotoxic Concentration L929 (L929 mouse fibroblasts): 0.1%

O=C(O)CCC(=O)OCCC(F)(F)C(F)(F)C(F)(F)C(F)(F)C(F)(F)C(F)(F)F [2i2i3h]
Maximum Non-Cytotoxic Concentration HMEC-1 [1]: 0.1% | Maximum Non-Hemolytic Concentration (blood): 0.05% | Maximum Non-Cytotoxic Concentration L929 (L929 mouse fibroblasts): 0.1%

O=C(O)C(CCC(F)(F)C(F)(F)C(F)(F)C(F)(F)C(F)(F)C(F)(F)C(F)(F)C(F)(F)F)C(=O)O [2s3e]
Maximum Non-Cytotoxic Concentration HMEC-1 [1]: 0.25% | Maximum Non-Hemolytic Concentration (blood): 0.1% | Maximum Non-Cytotoxic Concentration L929 (L929 mouse fibroblasts): 0.25%

O=C(O)CSCCC(F)(F)C(F)(F)C(F)(F)C(F)(F)C(F)(F)C(F)(F)C(F)(F)C(F)(F)F [2a3c]
Maximum Non-Cytotoxic Concentration HMEC-1 [1]: 0.2% | Maximum Non-Hemolytic Concentration (blood): 0.2% | Maximum Non-Cytotoxic Concentration L929 (L929 mouse fibroblasts): 0.2%

O=C(O)CCCCCSCCC(F)(F)C(F)(F)C(F)(F)C(F)(F)C(F)(F)C(F)(F)C(F)(F)C(F)(F)F [2c3c]
Maximum Non-Cytotoxic Concentration HMEC-1 [1]: 0.5% | Maximum Non-Hemolytic Concentration (blood): 0.25% | Maximum Non-Cytotoxic Concentration L929 (L929 mouse fibroblasts): 0.25%

O=C(O)CCCC(=O)OCCC(F)(F)C(F)(F)C(F)(F)C(F)(F)C(F)(F)C(F)(F)C(F)(F)C(F)(F)F [2l3l]
Maximum Non-Cytotoxic Concentration HMEC-1 [1]: >1.00% | Maximum Non-Hemolytic Concentration (blood): >2.00% | Maximum Non-Cytotoxic Concentration L929 (L929 mouse fibroblasts): >1.00%

O=C(O)CCCC(=O)OCCC(F)(F)C(F)(F)C(F)(F)C(F)(F)C(F)(F)C(F)(F)C(F)(F)C(F)(F)F [2l3c]
Maximum Non-Cytotoxic Concentration HMEC-1 [1]: 0.5% | Maximum Non-Hemolytic Concentration (blood): >2.00% | Maximum Non-Cytotoxic Concentration L929 (L929 mouse fibroblasts): 0.5%

O=C(O)CCCCCSCCC(F)(F)C(F)(F)C(F)(F)C(F)(F)C(F)(F)C(F)(F)C(F)(F)C(F)(F)F [2c3f]
Maximum Non-Cytotoxic Concentration HMEC-1 [1]: 1% | Concentrations with hemolytic properties (blood): above 0.05% | Maximum Non-Hemolytic Concentration (blood): 0.01% | Maximum Non-Cytotoxic Concentration L929 (L929 mouse fibroblasts): <0.25%

O=C(O)CCC(=O)OCCC(F)(F)C(F)(F)C(F)(F)C(F)(F)C(F)(F)C(F)(F)C(F)(F)C(F)(F)F [2j2j3h]
Maximum Non-Cytotoxic Concentration HMEC-1 [1]: 1% | Maximum Non-Hemolytic Concentration (blood): >2.00% | Maximum Non-Cytotoxic Concentration L929 (L929 mouse fibroblasts): 0.25** %

O=C(O)CCCC(=O)OCCC(F)(F)C(F)(F)C(F)(F)C(F)(F)C(F)(F)C(F)(F)F [2k3l]
Maximum Non-Cytotoxic Concentration HMEC-1 [1]: <0.25% | Maximum Non-Hemolytic Concentration (blood): 0.05% | Maximum Non-Cytotoxic Concentration L929 (L929 mouse fibroblasts): <0.25* %

O=C(O)CCCC(=O)OCCC(F)(F)C(F)(F)C(F)(F)C(F)(F)C(F)(F)C(F)(F)F [2k3k]
Maximum Non-Cytotoxic Concentration HMEC-1 [1]: 0.10** % | Maximum Non-Hemolytic Concentration (blood): 0.05% | Maximum Non-Cytotoxic Concentration L929 (L929 mouse fibroblasts): 0.20** %

O=C(O)CCC(=O)OCCC(F)(F)C(F)(F)C(F)(F)C(F)(F)C(F)(F)C(F)(F)C(F)(F)C(F)(F)F [2j3l]
Maximum Non-Cytotoxic Concentration HMEC-1 [1]: 1% | Maximum Non-Hemolytic Concentration (blood): >2.00% | Maximum Non-Cytotoxic Concentration L929 (L929 mouse fibroblasts): 0.10** %

O=C(O)CC(F)(F)C(F)(F)C(F)(F)C(F)(F)C(F)(F)C(F)(F)F [2p3e]
Maximum Non-Cytotoxic Concentration HMEC-1 [1]: 0.25% | Maximum Non-Hemolytic Concentration (blood): 0.25% | Maximum Non-Cytotoxic Concentration L929 (L929 mouse fibroblasts): 0.1%

O=C(O)CCC(=O)OCCC(F)(F)C(F)(F)C(F)(F)C(F)(F)C(F)(F)C(F)(F)F [2i3l]
Maximum Non-Cytotoxic Concentration HMEC-1 [1]: 0.01** % | Maximum Non-Hemolytic Concentration (blood): 0.05% | Maximum Non-Cytotoxic Concentration L929 (L929 mouse fibroblasts): 0.01** %

O=C(O)CCC(=O)OCCC(F)(F)C(F)(F)C(F)(F)C(F)(F)C(F)(F)C(F)(F)F [2i3c]
Maximum Non-Cytotoxic Concentration HMEC-1 [1]: 0.10** % | Maximum Non-Hemolytic Concentration (blood): 0.02% | Maximum Non-Cytotoxic Concentration L929 (L929 mouse fibroblasts): 0.10** %

O=C(O)CSCCC(F)(F)C(F)(F)C(F)(F)C(F)(F)C(F)(F)C(F)(F)C(F)(F)C(F)(F)F [2a3e]
Maximum Non-Cytotoxic Concentration HMEC-1 [1]: 0.2% | Maximum Non-Hemolytic Concentration (blood): 0.25% | Maximum Non-Cytotoxic Concentration L929 (L929 mouse fibroblasts): 0.2%

O=C(O)CCC(=O)OCCC(F)(F)C(F)(F)C(F)(F)C(F)(F)C(F)(F)C(F)(F)F [2i3e]
Maximum Non-Cytotoxic Concentration HMEC-1 [1]: 0.10** % | Maximum Non-Hemolytic Concentration (blood): 0.05% | Maximum Non-Cytotoxic Concentration L929 (L929 mouse fibroblasts): 0.20** %

O=C(O)CCCCCSCCC(F)(F)C(F)(F)C(F)(F)C(F)(F)C(F)(F)C(F)(F)C(F)(F)C(F)(F)F [2c3a]
Maximum Non-Cytotoxic Concentration HMEC-1 [1]: 0.5% | Maximum Non-Hemolytic Concentration (blood): 0.02% | Maximum Non-Cytotoxic Concentration L929 (L929 mouse fibroblasts): 0.5%

O=C(O)CCCCCSCCC(F)(F)C(F)(F)C(F)(F)C(F)(F)C(F)(F)C(F)(F)C(F)(F)C(F)(F)F [2c3k]
Maximum Non-Cytotoxic Concentration HMEC-1 [1]: 1% | Maximum Non-Hemolytic Concentration (blood): 0.05% | Maximum Non-Cytotoxic Concentration L929 (L929 mouse fibroblasts): 0.25%

O=C(O)CCCCCSCCC(F)(F)C(F)(F)C(F)(F)C(F)(F)C(F)(F)C(F)(F)C(F)(F)C(F)(F)F [2c3l]
Maximum Non-Cytotoxic Concentration HMEC-1 [1]: 0.5% | Maximum Non-Hemolytic Concentration (blood): 0.02% | Maximum Non-Cytotoxic Concentration L929 (L929 mouse fibroblasts): 0.25* %
